According to patent US7799809B2, “Carboxamide compounds and their use as calpain inhibitors” (Abbott GmbH & Co. KG, priority 2006, dated 2010):

Tests used:
Assay type in all cases: biochemical
cathepsin S = biological target: T1, cathepsin S (Homo sapiens, UniProt P25774); assay: Cathepsin S enzyme inhibition in vitro (kinetic fluorescence assay); conditions: recombinant human cathepsin S vs calpain I
T1 construct: purchased Calbiochem 219343; host or cells: E. coli
Outline: (§1)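 cat B 0.25 nM + Z-Phe-Arg-AMC 100 μM; cat L 1 nM + Z-Phe-Arg-AMC 2 μM; cat S 0.5 nM (E. coli-expressed) + Z-Val-Val-Arg-AMC 20 μM. 50 mM MES pH 6.0, 2.5 mM L-Cys, RT. Ex 390/em 460, kinetic; Ki app = Cheng-Prusoff from IC50, mean of 2–4 curves.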

cathepsin K = biological target: T2, cathepsin K (Homo sapiens, UniProt P43235); assay: Cathepsin K enzyme inhibition in vitro (kinetic fluorescence assay); conditions: cathepsin K activated from recombinant human procathepsin K vs calpain I
T2 construct: purchased Calbiochem 342001; host or cells: E. coli
T2 sequence (P43235 115-329): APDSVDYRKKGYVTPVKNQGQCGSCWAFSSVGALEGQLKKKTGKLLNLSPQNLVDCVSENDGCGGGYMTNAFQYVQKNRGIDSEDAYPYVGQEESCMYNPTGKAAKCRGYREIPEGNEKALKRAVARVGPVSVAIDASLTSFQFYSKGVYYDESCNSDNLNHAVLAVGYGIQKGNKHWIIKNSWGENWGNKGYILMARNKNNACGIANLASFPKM

cathepsin L = biological target: T3, cathepsin L (Homo sapiens, UniProt P07711); assay: Cathepsin L enzyme inhibition in vitro (kinetic fluorescence assay); conditions: cathepsin L isolated from human liver vs calpain I
T3 construct: cathepsin L—isolated from human liver (Calbiochem #219402); purchased Calbiochem 219402; host or cells: human liver (tissue-derived)
Outline: as §1

cathepsin B = biological target: T4, cathepsin B (Homo sapiens, UniProt P07858); assay: Cathepsin B enzyme inhibition in vitro (kinetic fluorescence assay); conditions: cathepsin B isolated from human liver vs calpain I
T4 construct: cathepsin B—isolated from human liver (Calbiochem #219362); purchased Calbiochem 219362; host or cells: human liver (tissue-derived)
Outline: as §1

T3 sequence (P07711 114-333): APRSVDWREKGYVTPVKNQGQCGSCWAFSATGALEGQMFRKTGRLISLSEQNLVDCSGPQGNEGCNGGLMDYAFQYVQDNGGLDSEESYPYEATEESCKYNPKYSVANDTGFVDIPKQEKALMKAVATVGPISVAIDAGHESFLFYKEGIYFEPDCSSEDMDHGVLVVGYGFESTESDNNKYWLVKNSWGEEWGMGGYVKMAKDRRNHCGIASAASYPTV
T1 sequence (P25774 115-331): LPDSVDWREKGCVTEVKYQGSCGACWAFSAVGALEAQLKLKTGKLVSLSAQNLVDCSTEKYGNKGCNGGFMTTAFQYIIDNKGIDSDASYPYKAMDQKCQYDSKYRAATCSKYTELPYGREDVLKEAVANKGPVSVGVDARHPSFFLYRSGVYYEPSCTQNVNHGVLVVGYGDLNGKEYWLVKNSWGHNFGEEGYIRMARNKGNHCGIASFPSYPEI

Compound | Sel cat. S: Ki(cathepsin S)/Ki(calpain) ratio (cathepsin S) | Sel cat. K: Ki(cathepsin K)/Ki(calpain) ratio (cathepsin K) | Sel cat. L: Ki(cathepsin L)/Ki(calpain) ratio (cathepsin L) | Sel cat. B: Ki(cathepsin B)/Ki(calpain) ratio (cathepsin B)
NC(=O)C(=O)C(Cc1ccccc1)NC(=O)c1cccnc1-n1ccc(-c2ccc(Cl)s2)n1 (stereo not shown) [Example 103, N-[3-Amino-2,3-dioxo-1-(phenylmethyl)propyl]-2-[3-(5-chloro-2-thienyl)-1H-pyrazol-1-yl]pyridine-3-carboxamide] | ++ (++ means a Ki(cathepsin S)/Ki(calpain) ratio of ≧100) | + (+ means 10≦Ki(cathepsin K)/Ki(calpain)<30) | ++ (++ means a Ki(cathepsin L)/Ki(calpain) ratio of ≧50) | + (+ means 10≦Ki(cathepsin B)/Ki(calpain)<30)
NC(=O)C(=O)[C@H](Cc1ccccc1)NC(=O)c1cccnc1-n1ccc(-c2ccccc2)n1 [Example 107, N-[(1S)-3-Amino-2,3-dioxo-1-(phenylmethyl)propyl]-2-(3-phenyl-1H-pyrazol-1-yl)pyridine-3-carboxamide] | ++ (++ means a Ki(cathepsin S)/Ki(calpain) ratio of ≧100) | + (+ means 10≦Ki(cathepsin K)/Ki(calpain)<30) | ++ (++ means a Ki(cathepsin L)/Ki(calpain) ratio of ≧50) | + (+ means 10≦Ki(cathepsin B)/Ki(calpain)<30)
NC(=O)C(=O)C(Cc1ccccc1)NC(=O)c1cccnc1-n1ccc(-c2sccc2Cl)n1 (stereo not shown) [Example 109, N-[3-Amino-2,3-dioxo-1-(phenylmethyl)propyl]-2-[3-(3-chloro-2-thienyl)-1H-pyrazol-1-yl]pyridine-3-carboxamide] | ++ (++ means a Ki(cathepsin S)/Ki(calpain) ratio of ≧100) | ++ (++ means a Ki(cathepsin K)/Ki(calpain) ratio of ≧30) | ++ (++ means a Ki(cathepsin L)/Ki(calpain) ratio of ≧50) | ++ (++ means a Ki(cathepsin B)/Ki(calpain) ratio of ≧30)
NC(=O)C(=O)C(Cc1ccccc1)NC(=O)c1cccnc1-n1ccc(-c2cccc3ccccc23)n1 (stereo not shown) [Example 110, N-[3-Amino-2,3-dioxo-1-(phenylmethyl)propyl]-2-(3-naphthalen-1-yl-1H-pyrazol-1-yl)pyridine-3-carboxamide] | ++ (++ means a Ki(cathepsin S)/Ki(calpain) ratio of ≧100) | ++ (++ means a Ki(cathepsin K)/Ki(calpain) ratio of ≧30) | ++ (++ means a Ki(cathepsin L)/Ki(calpain) ratio of ≧50) | ++ (++ means a Ki(cathepsin B)/Ki(calpain) ratio of ≧30)
COc1ccc(CC(NC(=O)c2cccnc2-n2ccc(-c3ccc(F)cc3Cl)n2)C(=O)C(N)=O)cc1 (stereo not shown) [Example 111, N-(3-Amino-1-{[4-(methyloxy)phenyl]methyl}-2,3-dioxopropyl)-2-[3-(2-chloro-4-fluorophenyl)-1H-pyrazol-1-yl]pyridine-3-carboxamide] | ++ (++ means a Ki(cathepsin S)/Ki(calpain) ratio of ≧100) | ++ (++ means a Ki(cathepsin K)/Ki(calpain) ratio of ≧30) | ++ (++ means a Ki(cathepsin L)/Ki(calpain) ratio of ≧50) | ++ (++ means a Ki(cathepsin B)/Ki(calpain) ratio of ≧30)
NC(=O)C(=O)C(Cc1ccccc1)NC(=O)c1cccnc1-n1ccc(-c2cc(Cl)ccc2Cl)n1 (stereo not shown) [Example 112, N-[3-Amino-2,3-dioxo-1-(phenylmethyl)propyl]-2-[3-(2,5-dichlorophenyl)-1H-pyrazol-1-yl]pyridine-3-carboxamide] | ++ (++ means a Ki(cathepsin S)/Ki(calpain) ratio of ≧100) | ++ (++ means a Ki(cathepsin K)/Ki(calpain) ratio of ≧30) | ++ (++ means a Ki(cathepsin L)/Ki(calpain) ratio of ≧50) | ++ (++ means a Ki(cathepsin B)/Ki(calpain) ratio of ≧30)
NC(=O)C(=O)C(Cc1ccc(F)cc1)NC(=O)c1cccnc1-n1ccc(-c2ccc(Cl)cc2Cl)n1 (stereo not shown) [Example 114, N-{-3-Amino-1-[(4-fluorophenyl)methyl]-2,3-dioxopropyl}-2-[3-(2,4-dichlorophenyl)-1H-pyrazol-1-yl]pyridine-3-carboxamide] | ++ (++ means a Ki(cathepsin S)/Ki(calpain) ratio of ≧100) | ++ (++ means a Ki(cathepsin K)/Ki(calpain) ratio of ≧30) | ++ (++ means a Ki(cathepsin L)/Ki(calpain) ratio of ≧50) | ++ (++ means a Ki(cathepsin B)/Ki(calpain) ratio of ≧30)
NC(=O)C(=O)C(Cc1ccccc1)NC(=O)c1cccnc1-n1ccc(-c2cccc(Cl)c2Cl)n1 (stereo not shown) [Example 115, N-[3-Amino-2,3-dioxo-1-(phenylmethyl)propyl]-2-[3-(2,3-dichlorophenyl)-1H-pyrazol-1-yl]pyridine-3-carboxamide] | ++ (++ means a Ki(cathepsin S)/Ki(calpain) ratio of ≧100) | ++ (++ means a Ki(cathepsin K)/Ki(calpain) ratio of ≧30) | ++ (++ means a Ki(cathepsin L)/Ki(calpain) ratio of ≧50) | ++ (++ means a Ki(cathepsin B)/Ki(calpain) ratio of ≧30)
NC(=O)C(=O)C(Cc1ccccc1)NC(=O)c1cccnc1-n1ccc(-c2c(F)cc(F)cc2F)n1 (stereo not shown) [Example 116, N-[3-Amino-2,3-dioxo-1-(phenylmethyl)propyl]-2-[3-(2,4,6-trifluorophenyl)-1H-pyrazol-1-yl]pyridine-3-carboxamide] | ++ (++ means a Ki(cathepsin S)/Ki(calpain) ratio of ≧100) | + (+ means 10≦Ki(cathepsin K)/Ki(calpain)<30) | ++ (++ means a Ki(cathepsin L)/Ki(calpain) ratio of ≧50) | ++ (++ means a Ki(cathepsin B)/Ki(calpain) ratio of ≧30)
COc1ccc(-c2ccn(-c3ncccc3C(=O)NC(Cc3ccccc3)C(=O)C(N)=O)n2)c(OC)c1 (stereo not shown) [Example 117, N-[3-Amino-2,3-dioxo-1-(phenylmethyl)propyl]-2-{3-[2,4-bis(methyloxy)phenyl]-1H-pyrazol-1-yl}pyridine-3-carboxamide] | ++ (++ means a Ki(cathepsin S)/Ki(calpain) ratio of ≧100) | ++ (++ means a Ki(cathepsin K)/Ki(calpain) ratio of ≧30) | ++ (++ means a Ki(cathepsin L)/Ki(calpain) ratio of ≧50) | ++ (++ means a Ki(cathepsin B)/Ki(calpain) ratio of ≧30)
NC(=O)C(=O)C(Cc1ccccc1)NC(=O)c1cccnc1-n1ccc(-c2ccc3c(c2)OC(F)(F)O3)n1 (stereo not shown) [Example 118, N-[3-Amino-2,3-dioxo-1-(phenylmethyl)propyl]-2-[3-(2,2-difluoro-1,3-benzodioxol-5-yl)-1H-pyrazol-1-yl]pyridine-3-carboxamide] | ++ (++ means a Ki(cathepsin S)/Ki(calpain) ratio of ≧100) | + (+ means 10≦Ki(cathepsin K)/Ki(calpain)<30) | ++ (++ means a Ki(cathepsin L)/Ki(calpain) ratio of ≧50) | ++ (++ means a Ki(cathepsin B)/Ki(calpain) ratio of ≧30)
NC(=O)C(=O)C(Cc1ccccc1)NC(=O)c1cccnc1-n1ccc(-c2cccc3c2OC(F)(F)O3)n1 (stereo not shown) [Example 119, N-[3-Amino-2,3-dioxo-1-(phenylmethyl)propyl]-2-[3-(2,2-difluoro-1,3-benzodioxol-4-yl)-1H-pyrazol-1-yl]pyridine-3-carboxamide] | ++ (++ means a Ki(cathepsin S)/Ki(calpain) ratio of ≧100) | ++ (++ means a Ki(cathepsin K)/Ki(calpain) ratio of ≧30) | ++ (++ means a Ki(cathepsin L)/Ki(calpain) ratio of ≧50) | ++ (++ means a Ki(cathepsin B)/Ki(calpain) ratio of ≧30)
NC(=O)C(=O)C(Cc1ccccc1)NC(=O)c1cccnc1-n1ccc(-c2c(F)ccc(Cl)c2Cl)n1 (stereo not shown) [Example 120, N-[3-Amino-2,3-dioxo-1-(phenylmethyl)propyl]-2-[3-(2,3-dichloro-6-fluorophenyl)-1H-pyrazol-1-yl]pyridine-3-carboxamide] | ++ (++ means a Ki(cathepsin S)/Ki(calpain) ratio of ≧100) | ++ (++ means a Ki(cathepsin K)/Ki(calpain) ratio of ≧30) | + (+ means 30≦Ki(cathepsin L)/Ki(calpain)<50) | ++ (++ means a Ki(cathepsin B)/Ki(calpain) ratio of ≧30)
